Laboratory results reported in ChEMBL document CHEMBL5696442, “Discovery of type II inhibitors of TGFβ-activated kinase 1 (TAK1) and mitogen-activated protein kinase kinase kinase kinase 2 (MAP4K2)” (J Med Chem, 2015).
Activity calls are given as the source filed them. The rule behind the calls is not given here.

Legend:
[1] = molecular target: Epidermal growth factor receptor (Homo sapiens) (UniProt P00533); assay: Inhibition of EGFR Lys1 labeling site harbouring GLWIPEGEKVKIPVAIKELR in human Huh-7 cell lysate at 1 uM by KiNativ Profiling analysis relative to control; format: subcellular
Chain of Epidermal growth factor receptor (Homo sapiens) (P00533 whole entry): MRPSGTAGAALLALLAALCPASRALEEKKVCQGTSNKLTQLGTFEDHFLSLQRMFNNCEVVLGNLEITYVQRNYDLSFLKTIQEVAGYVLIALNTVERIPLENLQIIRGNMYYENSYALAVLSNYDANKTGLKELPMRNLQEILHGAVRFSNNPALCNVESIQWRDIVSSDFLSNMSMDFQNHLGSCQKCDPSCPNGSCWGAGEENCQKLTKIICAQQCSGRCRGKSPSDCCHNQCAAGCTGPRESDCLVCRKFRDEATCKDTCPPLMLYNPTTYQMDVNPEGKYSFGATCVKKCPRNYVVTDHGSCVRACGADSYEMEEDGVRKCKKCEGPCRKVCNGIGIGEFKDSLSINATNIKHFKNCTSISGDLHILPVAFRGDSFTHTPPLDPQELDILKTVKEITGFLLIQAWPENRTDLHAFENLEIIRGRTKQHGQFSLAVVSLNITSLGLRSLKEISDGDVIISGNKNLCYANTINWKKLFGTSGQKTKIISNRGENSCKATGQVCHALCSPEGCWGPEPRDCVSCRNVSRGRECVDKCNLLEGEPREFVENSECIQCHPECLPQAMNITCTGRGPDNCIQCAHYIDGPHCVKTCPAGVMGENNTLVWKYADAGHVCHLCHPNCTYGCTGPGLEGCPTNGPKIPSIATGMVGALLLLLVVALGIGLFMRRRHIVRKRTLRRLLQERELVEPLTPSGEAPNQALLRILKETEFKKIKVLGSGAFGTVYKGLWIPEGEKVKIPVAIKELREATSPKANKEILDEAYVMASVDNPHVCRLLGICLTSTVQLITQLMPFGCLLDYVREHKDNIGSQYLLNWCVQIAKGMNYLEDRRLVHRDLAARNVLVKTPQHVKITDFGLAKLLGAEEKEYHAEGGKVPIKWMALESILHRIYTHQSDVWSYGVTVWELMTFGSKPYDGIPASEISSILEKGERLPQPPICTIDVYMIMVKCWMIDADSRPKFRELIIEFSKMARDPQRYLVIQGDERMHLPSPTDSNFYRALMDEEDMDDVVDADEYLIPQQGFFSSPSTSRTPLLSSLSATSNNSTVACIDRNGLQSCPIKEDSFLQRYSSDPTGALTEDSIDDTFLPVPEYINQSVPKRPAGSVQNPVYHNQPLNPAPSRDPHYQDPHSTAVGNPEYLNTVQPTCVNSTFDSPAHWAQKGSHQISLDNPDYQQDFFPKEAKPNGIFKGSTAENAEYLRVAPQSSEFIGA

[2] = molecular target: DNA-PK/Ku70/Ku85 (Homo sapiens) (UniProt P78527+P12956+P13010); assay: Inhibition of DNAPK ATP labeling site harbouring KGGSWIQEINVAEK in human A-375 cells at 0.05 uM by KiNativ Profiling analysis relative to control; format: cell-based
[3] = molecular target: Platelet-derived growth factor receptor alpha (Homo sapiens) (UniProt P16234); assay: Inhibition of PDGFRA (unknown origin) at 1 uM by Ambit Kinomescan binding assay relative to control; values are per cent of control
Chain of Platelet-derived growth factor receptor alpha (Homo sapiens) (P16234 whole entry): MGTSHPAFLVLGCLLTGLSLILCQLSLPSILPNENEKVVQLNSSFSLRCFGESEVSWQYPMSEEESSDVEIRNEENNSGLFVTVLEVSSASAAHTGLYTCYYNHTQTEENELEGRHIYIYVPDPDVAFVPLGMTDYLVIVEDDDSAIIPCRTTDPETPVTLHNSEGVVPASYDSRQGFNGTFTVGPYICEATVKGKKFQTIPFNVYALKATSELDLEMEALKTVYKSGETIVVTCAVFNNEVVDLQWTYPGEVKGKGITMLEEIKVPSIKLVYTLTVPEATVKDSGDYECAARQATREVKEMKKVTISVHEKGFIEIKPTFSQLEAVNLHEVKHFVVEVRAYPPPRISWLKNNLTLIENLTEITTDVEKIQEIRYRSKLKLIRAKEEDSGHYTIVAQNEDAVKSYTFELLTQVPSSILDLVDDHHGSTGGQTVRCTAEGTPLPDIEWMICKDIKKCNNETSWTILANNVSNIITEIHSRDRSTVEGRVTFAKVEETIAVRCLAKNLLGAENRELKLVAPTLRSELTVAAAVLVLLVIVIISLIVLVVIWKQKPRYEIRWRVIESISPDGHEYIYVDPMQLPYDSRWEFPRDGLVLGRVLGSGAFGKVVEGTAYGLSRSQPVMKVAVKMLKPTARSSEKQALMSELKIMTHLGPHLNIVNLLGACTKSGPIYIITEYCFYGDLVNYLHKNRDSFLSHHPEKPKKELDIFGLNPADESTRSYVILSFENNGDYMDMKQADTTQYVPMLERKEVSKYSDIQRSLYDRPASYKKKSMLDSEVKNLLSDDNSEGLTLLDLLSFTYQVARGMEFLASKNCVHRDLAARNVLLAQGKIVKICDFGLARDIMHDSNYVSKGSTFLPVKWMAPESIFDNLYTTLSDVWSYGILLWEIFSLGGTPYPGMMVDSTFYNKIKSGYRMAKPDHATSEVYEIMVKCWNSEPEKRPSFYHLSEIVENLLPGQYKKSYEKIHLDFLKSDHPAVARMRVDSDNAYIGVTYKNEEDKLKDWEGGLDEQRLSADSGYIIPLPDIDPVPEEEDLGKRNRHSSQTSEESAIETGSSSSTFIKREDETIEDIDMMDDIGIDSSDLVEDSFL

[4] = molecular target: Serine/threonine-protein kinase SMG1 (Homo sapiens) (UniProt Q96Q15); assay: Inhibition of SMG1 ATP labeling site harbouring SYPYLFKGLEDLHLDER in human A-375 cells at 5 uM by KiNativ Profiling analysis relative to control; format: cell-based
[5] = molecular target: Tyrosine-protein kinase receptor UFO (Homo sapiens) (UniProt P30530); assay: Inhibition of AXL (unknown origin) at 1 uM by Ambit Kinomescan binding assay relative to control; values are per cent of control
Chain of Tyrosine-protein kinase receptor UFO (Homo sapiens) (P30530 whole entry): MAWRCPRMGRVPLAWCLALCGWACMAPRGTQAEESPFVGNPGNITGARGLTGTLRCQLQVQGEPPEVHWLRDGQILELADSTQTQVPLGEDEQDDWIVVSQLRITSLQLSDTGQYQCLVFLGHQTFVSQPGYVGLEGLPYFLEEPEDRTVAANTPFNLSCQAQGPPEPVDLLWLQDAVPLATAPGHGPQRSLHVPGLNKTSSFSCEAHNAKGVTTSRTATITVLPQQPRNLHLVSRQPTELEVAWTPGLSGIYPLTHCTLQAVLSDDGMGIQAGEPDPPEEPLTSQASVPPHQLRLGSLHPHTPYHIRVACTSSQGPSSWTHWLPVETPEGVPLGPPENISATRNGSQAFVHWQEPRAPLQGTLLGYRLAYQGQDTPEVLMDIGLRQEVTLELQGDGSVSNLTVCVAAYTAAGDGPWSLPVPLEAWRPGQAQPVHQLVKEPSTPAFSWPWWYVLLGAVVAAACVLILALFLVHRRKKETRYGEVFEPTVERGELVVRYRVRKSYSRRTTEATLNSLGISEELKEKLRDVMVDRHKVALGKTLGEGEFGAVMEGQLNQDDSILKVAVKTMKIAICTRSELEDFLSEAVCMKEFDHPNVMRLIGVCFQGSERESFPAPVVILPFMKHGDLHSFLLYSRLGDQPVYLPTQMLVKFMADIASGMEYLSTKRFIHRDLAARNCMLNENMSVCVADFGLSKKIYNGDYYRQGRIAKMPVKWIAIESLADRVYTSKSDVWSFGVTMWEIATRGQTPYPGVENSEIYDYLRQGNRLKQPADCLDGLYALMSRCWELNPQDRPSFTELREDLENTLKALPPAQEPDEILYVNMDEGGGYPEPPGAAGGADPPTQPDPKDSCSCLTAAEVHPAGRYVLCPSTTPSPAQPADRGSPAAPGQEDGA

[6] = molecular target: Cyclin-dependent kinase-like 2 (Homo sapiens) (UniProt Q92772); assay: Inhibition of CDKL2 (unknown origin) at 1 uM by Ambit Kinomescan binding assay relative to control; values are per cent of control
Chain of Cyclin-dependent kinase-like 2 (Homo sapiens) (Q92772 whole entry): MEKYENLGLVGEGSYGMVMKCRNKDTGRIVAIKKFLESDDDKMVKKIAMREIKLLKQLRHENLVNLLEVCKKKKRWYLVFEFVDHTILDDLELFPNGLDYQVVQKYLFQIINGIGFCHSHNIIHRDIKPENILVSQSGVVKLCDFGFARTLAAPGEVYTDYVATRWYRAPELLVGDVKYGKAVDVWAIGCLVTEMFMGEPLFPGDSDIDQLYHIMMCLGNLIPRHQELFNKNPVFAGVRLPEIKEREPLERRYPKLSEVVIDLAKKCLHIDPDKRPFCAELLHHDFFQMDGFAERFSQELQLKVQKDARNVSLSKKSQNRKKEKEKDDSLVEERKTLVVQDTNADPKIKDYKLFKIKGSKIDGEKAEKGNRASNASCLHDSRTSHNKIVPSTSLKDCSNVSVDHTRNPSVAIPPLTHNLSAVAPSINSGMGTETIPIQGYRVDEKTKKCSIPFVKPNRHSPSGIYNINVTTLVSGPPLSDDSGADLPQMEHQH

[7] = molecular target: T1, NUAK family SNF1-like kinase 1 (Homo sapiens) (UniProt O60285); assay: Inhibition of ARK5 (unknown origin) at 10 uM by Ambit Kinomescan binding assay
T1 sequence (whole entry): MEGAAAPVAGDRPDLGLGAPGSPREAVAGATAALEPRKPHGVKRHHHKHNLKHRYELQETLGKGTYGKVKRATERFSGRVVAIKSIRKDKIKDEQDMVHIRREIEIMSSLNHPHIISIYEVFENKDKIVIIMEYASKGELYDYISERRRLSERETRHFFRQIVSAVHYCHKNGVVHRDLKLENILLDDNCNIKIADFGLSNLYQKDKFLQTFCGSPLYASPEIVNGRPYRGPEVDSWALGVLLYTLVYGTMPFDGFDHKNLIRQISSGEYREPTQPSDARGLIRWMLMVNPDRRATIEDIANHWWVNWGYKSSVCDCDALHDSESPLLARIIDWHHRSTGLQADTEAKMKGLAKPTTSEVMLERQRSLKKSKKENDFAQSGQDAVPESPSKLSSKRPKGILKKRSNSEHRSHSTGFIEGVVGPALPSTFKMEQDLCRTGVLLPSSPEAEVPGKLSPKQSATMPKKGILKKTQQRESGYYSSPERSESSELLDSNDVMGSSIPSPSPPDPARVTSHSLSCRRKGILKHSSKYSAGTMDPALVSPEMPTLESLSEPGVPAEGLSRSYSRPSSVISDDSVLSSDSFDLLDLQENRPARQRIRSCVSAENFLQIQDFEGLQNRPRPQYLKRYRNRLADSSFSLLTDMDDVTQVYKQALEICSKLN

[8] = tested on: Tyrosine-protein kinase ABL1 (Homo sapiens), P00519 [M351T]; assay: Inhibition of ABL1 M351T mutant (unknown origin) at 10 uM by Ambit Kinomescan binding assay relative to control
[9] = molecular target: MAP/microtubule affinity-regulating kinase 3 (Homo sapiens) (UniProt P27448); assay: Inhibition of MARK3 K1 labeling site in human Huh-7 cells at 1 uM by KiNativ Profiling analysis relative to control; format: cell-based
Chain of MAP/microtubule affinity-regulating kinase 3 (Homo sapiens) (P27448 whole entry, looked up): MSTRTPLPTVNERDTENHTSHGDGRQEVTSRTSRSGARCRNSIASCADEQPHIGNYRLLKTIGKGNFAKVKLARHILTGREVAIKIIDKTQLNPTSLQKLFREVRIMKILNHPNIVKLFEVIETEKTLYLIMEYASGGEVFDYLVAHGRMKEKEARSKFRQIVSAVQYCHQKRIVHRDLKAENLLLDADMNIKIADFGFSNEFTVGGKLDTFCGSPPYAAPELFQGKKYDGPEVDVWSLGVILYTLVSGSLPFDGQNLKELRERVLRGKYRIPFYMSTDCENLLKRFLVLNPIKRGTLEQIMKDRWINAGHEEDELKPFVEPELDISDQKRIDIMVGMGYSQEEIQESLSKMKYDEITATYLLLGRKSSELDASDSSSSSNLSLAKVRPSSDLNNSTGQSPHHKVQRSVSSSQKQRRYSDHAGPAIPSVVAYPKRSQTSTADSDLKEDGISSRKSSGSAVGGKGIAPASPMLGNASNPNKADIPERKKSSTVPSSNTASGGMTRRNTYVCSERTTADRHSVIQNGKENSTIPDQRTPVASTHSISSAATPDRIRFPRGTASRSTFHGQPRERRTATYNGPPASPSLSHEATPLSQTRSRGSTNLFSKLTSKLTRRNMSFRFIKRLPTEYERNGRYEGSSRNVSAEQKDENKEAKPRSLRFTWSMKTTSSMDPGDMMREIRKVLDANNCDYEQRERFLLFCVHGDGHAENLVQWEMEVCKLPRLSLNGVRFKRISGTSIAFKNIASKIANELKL

[10] = molecular target: Serine/threonine-protein kinase SIK1 (Homo sapiens) (UniProt P57059); assay: Inhibition of SIK (unknown origin) at 10 uM by Ambit Kinomescan binding assay relative to control; values are per cent of control
[11] = molecular target: T2, Ephrin type-B receptor 4 (Homo sapiens) (UniProt P54760); assay: Inhibition of EPHB4 (unknown origin) at 10 uM by Ambit Kinomescan binding assay
T2 sequence (whole entry): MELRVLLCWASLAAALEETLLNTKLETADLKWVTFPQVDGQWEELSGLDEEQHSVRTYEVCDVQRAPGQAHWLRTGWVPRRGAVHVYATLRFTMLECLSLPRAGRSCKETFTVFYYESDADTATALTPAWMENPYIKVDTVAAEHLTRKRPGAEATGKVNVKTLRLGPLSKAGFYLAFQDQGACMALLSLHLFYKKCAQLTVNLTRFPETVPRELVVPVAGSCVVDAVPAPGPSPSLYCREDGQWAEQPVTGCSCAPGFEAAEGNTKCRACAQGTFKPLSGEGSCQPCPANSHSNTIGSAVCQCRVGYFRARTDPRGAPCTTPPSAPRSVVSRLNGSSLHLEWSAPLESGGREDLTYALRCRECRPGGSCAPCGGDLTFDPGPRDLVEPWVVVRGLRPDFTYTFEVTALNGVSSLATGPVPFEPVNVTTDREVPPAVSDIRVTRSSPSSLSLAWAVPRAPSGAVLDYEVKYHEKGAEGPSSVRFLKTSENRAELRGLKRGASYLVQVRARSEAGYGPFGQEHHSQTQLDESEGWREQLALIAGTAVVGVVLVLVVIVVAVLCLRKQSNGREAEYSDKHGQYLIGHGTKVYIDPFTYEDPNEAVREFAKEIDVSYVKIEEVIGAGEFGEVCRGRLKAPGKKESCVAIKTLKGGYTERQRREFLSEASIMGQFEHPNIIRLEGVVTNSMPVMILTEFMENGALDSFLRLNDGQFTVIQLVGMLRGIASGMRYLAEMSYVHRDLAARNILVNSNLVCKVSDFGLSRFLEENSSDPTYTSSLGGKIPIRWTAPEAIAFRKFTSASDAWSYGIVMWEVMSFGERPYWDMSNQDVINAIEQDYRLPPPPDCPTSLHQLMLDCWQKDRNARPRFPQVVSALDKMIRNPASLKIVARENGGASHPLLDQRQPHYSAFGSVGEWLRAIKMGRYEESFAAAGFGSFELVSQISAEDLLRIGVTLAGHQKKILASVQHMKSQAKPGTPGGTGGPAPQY

[12] = molecular target: AMPK alpha1/alpha2 (Homo sapiens) (UniProt P54646+Q13131); assay: Inhibition of AMPK alpha 1/2 K1 labeling site in human Huh-7 cells at 10 uM by KiNativ Profiling analysis relative to control; format: cell-based
[13] = molecular target: Serine/threonine-protein kinase ATR (Homo sapiens) (UniProt Q13535); assay: Inhibition of ATR ATP labeling site in human A-375 cells at 5 uM by KiNativ Profiling analysis relative to control; format: cell-based

How did the inhibition [1] turn out when CNc1cc(Oc2cc(C(=O)Nc3cc(N4CCN(C)CC4)cc(C(F)(F)F)c3)ccc2C)ncn1 was run?
The inhibition was 9.9%.

CCN1CCN(Cc2ccc(NC(=O)c3ccc(C)c(/C=C/c4cnc5[nH]ccc5c4OC)c3)cc2C(F)(F)F)CC1 was tested. Which inhibition [2] did it give?
The inhibition was 17.7%.

What about the residual activity [3] of the same compound?
The residual activity was 2.6%.

And the inhibition [4]?
The inhibition was 24.4%.

And the residual activity [5]?
Its residual activity is 55%.

What about the residual activity [6] of the same compound?
Its residual activity is 4.2%.

Which inhibition [7] does the source give for CCN1CCN(Cc2ccc(NC(=O)c3ccc(C)c(Oc4ccnc5[nH]ccc45)c3)cc2C(F)(F)F)CC1 here?
The inhibition was “inactive”.

What about the inhibition [8] of the same compound?
The inhibition was 0.35%.

What about the inhibition [9] of the same compound?
Its inhibition is 5%.

What about the residual activity [10] of the same compound?
Its residual activity is 5.3%.

What about the inhibition [11] of the same compound?
Its inhibition is “inactive”.

And the inhibition [12]?
Its inhibition is 34.6%.

What about the inhibition [13] of the same compound?
The inhibition was -2.8%.
